# According to patent US9353423B2, “HCV genotype 6 replicons” (priority 2012, dated 2016):
# Read-outs that look alike come from different tables or passages of the source.
# Legend:
# [1] = test system: Pi-GT1b-Rluc replicon; experiment: Replicon antiviral assay, transient transfection, luciferase activity (GT1b); format: cell-based, Hepatitis C virus genotype 1b; details: Hepatitis C virus
# Description: (§1) Replicon RNA were electroporated into 1C cells as described above. After transfection, cells were quickly transferred into 100 mL of pre-warmed culture medium, and 90 μl was seeded in 384-well plates at a density of 2,000 cells/well. Cells were treated with three-fold serial drug dilutions at 10 different concentrations. Cell plates were incubated at 37° C. for 3 days, after which culture medium was removed and cells were assayed for luciferase activity as markers for replicon levels. Luciferase expression was quantified using a commercial luciferase assay (Promega). Luciferase levels were converted into percentages relative to the levels in the untreated controls (defined as 100%), and data were fitted to the logistic dose-response equation y=a/[1+(x/b)^c] using XLFit4 software (IDBS, Emeryville, Calif.).
# (§2) Five different classes of HCV inhibitors as listed in the first column were evaluated for their antiviral activities against Pi-GT6a-Rluc and Pi-GT1b-Rluc replicons in a high throughput 384-well transient transfection assay, by measuring luciferase activity (Table 5). The data represents an average of at least two independent experiments with standard deviations.
# [2] = test system: Pi-GT6a-Rluc replicon; experiment: Replicon antiviral assay, luciferase-encoding GT6a replicon (Table 4); format: cell-based, Hepatitis C virus genotype 6a; details: for EC50: Hepatitis C virus, GT6A, 72 h, read-out: GT6a EC50
# Description: as §1
# [3] = test system: GT6aRluc-K272R replicon; experiment: Replicon antiviral assay, transient transfection, luciferase activity (GT6a, NS3 K272R); format: cell-based, Hepatitis C virus genotype 6a; details: for EC50: Hepatitis C virus, 1C cells, 384-well transient transfection, mean ± SD of at least two experiments
# Description: as §1, §2
# [4] = test system: GT6aRluc-K34R replicon; experiment: Replicon antiviral assay, transient transfection, luciferase activity (GT6a, NS4A K34R); format: cell-based, Hepatitis C virus genotype 6a; details: for EC50: Hepatitis C virus, 1C cells, 384-well transient transfection, mean ± SD of at least two experiments
# Description: as §1, §2
# [5] = 72 h, Table 4, 1C cells, 384-well, 3 days, mean ± SD, read-out: GT1b EC50
# [6] = Table 4, 1C cells, 384-well, 3 days, mean ± SD, adaptive mutation not stated
# [7] = Table 5, read-out: GT6aRluc-K272R EC50
# [8] = Table 5, read-out: GT6aRluc-K34R EC50
# [9] = Table 5, 1C cells, 384-well transient transfection, mean ± SD of at least two experiments, read-out: GT1bRluc EC50
# [10] = read-out: GT6aRluc-K272R EC50, Table 5
# [11] = read-out: GT6aRluc-K34R EC50, Table 5
SMILES,"EC50 [1, 5]","EC50 [2, 6]",GT6a/GT1b EC50 ratio ([2]; Table 4),"EC50 [3, 7]",GT6a(K272R)/1b EC50 ratio ([3]; Table 5),"EC50 [4, 8]",GT6a(K34R)/1b EC50 Ratio ([4]; Table 5),"EC50 [1, 9]",EC50 [2],antiviral activity against GT6a compared with GT1b ([2]; summary of Table 4),"EC50 [3, 10]","EC50 [4, 11]"
COC(=O)N[C@H](C(=O)N1CC2(CC2)C[C@H]1c1nc(-c2ccc3c(c2)C(F)(F)c2cc(-c4ccc5cc([C@@H]6[C@H]7CC[C@H](C7)N6C(=O)[C@@H](NC(=O)OC)C(C)C)[nH]c5c4)ccc2-3)c[nH]1)C(C)C [Compound B],0.007 ± 0.003 nM,0.79 ± 0.05 nM,113,–,–,–,–,–,–,–,–,–
"CCc1cc(CC[C@]2(C3CCCC3)CC(O)=C(Cc3nc4nc(C)cc(C)n4n3)C(=O)O2)cc(CC)n1 [Filibuvir, filibuvir]",112 ± 13 nM,–,32,3540 ± 93 nM,31.6,> 4440 nM,>40,112 ± 13 nM,3540 ± 93 nM,–,–,–
CCC[C@H](NC(=O)[C@@H]1[C@H]2CCC[C@H]2CN1C(=O)[C@@H](NC(=O)[C@@H](NC(=O)c1cnccn1)C1CCCCC1)C(C)(C)C)C(=O)C(=O)NC1CC1 [Telaprevir],428 ± 22 nM,349 ± 20 nM,0.8,208 ± 41 nM,0.5,349 ± 20 nM,0.8,428 ± 22 nM,–,–,–,–
CNC(=O)c1c(-c2ccc(F)cc2)oc2cc(N(CCO)S(C)(=O)=O)c(C3CC3)cc12 [HCV-796],20 ± 5.5 nM,21 ± 0.5 nM,1.0,21 nM,1.1,21 nM,1.1,20 ± 5.5 nM,–,retained activity against GT6a,–,–
"CC(C)(C)NC(=O)N[C@H](C(=O)N1C[C@H]2[C@@H]([C@H]1C(=O)NC(CC1CCC1)C(=O)C(N)=O)C2(C)C)C(C)(C)C (some centres unmarked) [Boceprevir, boceprevir]",188 ± 42 nM,177 ± 21 nM,0.9,–,1,–,0.9,181 ± 42 nM,–,–,185 ± 42 nM,168 ± 21 nM
"Fc1ccccc1-c1nc2ccn(Cc3ccc(-c4ccc(C(F)(F)F)cc4C(F)(F)F)nn3)cc-2n1 [Tegobuvir, tegobuvir]",2.6 ± 0.2 nM,119 ± 6 nM,46,110 ± 21 nM,42.3,119 ± 6 nM,45.8,2.6 ± 0.2 nM,–,–,–,–
CCC1C[C@]1(NC(=O)[C@@H]1C[C@@H](Oc2cc(-c3csc(NC(C)C)n3)nc3c(Cl)c(OCCN4CCOCC4)ccc23)CN1C(=O)[C@@H](NC(=O)O[C@@H]1C[C@@H]2C[C@@H]2C1)C(C)(C)C)C(=O)O (some centres unmarked) [Compound A],8.3 ± 1.6 nM,72 ± 25 nM,8.7,–,–,–,–,–,–,–,–,–
CN(C)CCN(C)[C@H]1COc2ccccc2-c2c(C3CCCCC3)c3ccc(C(=O)O)cc3n2C1 [MK-3281],–,–,–,1310 ± 635 nM,2.5,1280 ± 471 nM,2.4,534 ± 47 nM,–,–,–,–
CC1=CC[C@H](C(=O)N(c2cc(C#CC(C)(C)C)sc2C(=O)O)[C@H]2CC[C@](O)(CO[C@H]3CCOC3)CC2)CC1 [Compound C],3.5 ± 0.3 nM,877 ± 4 nM,251,736 ± 18 nM,210.3,877 ± 4 nM,250.6,3.5 ± 0.3 nM,–,–,–,–
C=C[C@@H]1C[C@]1(NC(=O)[C@@H]1C[C@@H]2CN1C(=O)[C@H](C(C)(C)C)NC(=O)O[C@@H]1C[C@H]1CCCCCc1nc3ccc(OC)cc3nc1O2)C(=O)NS(=O)(=O)C1CC1 [MK-5172],0.74 ± 0.07 nM,–,3.1,3 ± 0.4 nM,4.1,1.4 ± 0.3 nM,1.9,0.74 ± 0.07 nM,2.3 ± 0.3 nM,–,–,–
COc1ccc2c(O[C@@H]3C[C@H]4C(=O)N[C@]5(C(=O)O)C[C@H]5/C=C\CCCCC[C@H](NC(=O)OC5CCCC5)C(=O)N4C3)cc(-c3csc(NC(C)C)n3)nc2c1 [BILN-2061],–,–,–,–,17.2,–,17.2,0.99 ± 0.1 nM,–,–,17 nM,17 ± 9 nM
"COC(=O)N[C@H](C(=O)N1CCC[C@H]1c1nc(-c2ccc(-c3ccc(-c4c[nH]c([C@@H]5CCCN5C(=O)[C@@H](NC(=O)OC)C(C)C)n4)cc3)cc2)c[nH]1)C(C)C [Daclatasvir, daclatasvir]",0.034 ± 0.018 nM,0.06 ± 0.03 nM,1.8,0.08 ± 0.04 nM,2.4,0.04 ± 0.01 nM,1.2,0.034 ± 0.018 nM,–,–,–,–
"CC(C)OC(=O)[C@H](C)N[P@](=O)(OC[C@H]1O[C@@H](n2ccc(=O)[nH]c2=O)[C@](C)(F)[C@@H]1O)Oc1ccccc1 [Sofosbuvir, sofosbuvir]",39 ± 1.1 nM,14 ± 4.1 nM,0.4,14 ± 5 nM,0.4,14 ± 4 nM,0.4,39 ± 1.1 nM,–,–,–,–
